Data from patent publication US6699463B2, “Photostable cationic organic sunscreen compounds with antioxidant properties and compositions obtained therefrom” (EM Industries, priority 2002, dated 2004).
Values after ≈ are worked out from the molar mass of the structure shown.

Columns and labels:
[1] = Solubility in water / aqueous-ethanolic solution; format: physicochemical; settings: for Solubility in water: water / aqueous solution
[2] = Chelating property: free coordination sites in Cu2+-antioxidant complex, UV spectrophotometric azide method; format: physicochemical
Protocol: (§1) Iron-catalyzed formation of a hydroxyl radical from a superoxide anion radical and hydrogen peroxide requires the availability of at least one iron coordination site that is either empty or occupied by a readily dissociable ligand, such as water. […] Martell et al, 1957). The results are recorded in Tables 1 and 2. [table]

[3] = Chelating property: free coordination sites in Fe3+-antioxidant complex, UV spectrophotometric azide method; format: physicochemical
Protocol: as §1

[4] = DPPH test method (percent reducing activity, antioxidant activity); format: biochemical; settings: for IC 50%: DPPH reducing activity; for Reductive activity at 30 μg/ml: DPPH, absorbance at 517 nm after 20 minutes
Protocol: A DPPH concentrate (2.5×) of 25 mg of 1,1-Diphenyl-2-Picyrl-Hydrazyl ACS#1898-66-4 (Sigma #D-9132, lot 99H3601) dissolved in 250 mL ethanol (USP), is prepared fresh on the measurement date. A DPPH working solution is then prepared by diluting 100 mL of this concentrate to a final volume of 250 mL (100 μM/mL). A blank 13×100 mm borosilicate glass screw top tube of ethanol (USP) is used to zero the spectrometer (Milton Roy, Spectronic 20+) at 517 nm and a control tube of DPPH working solution is measured under identical conditions, and taken as 0% activity. Aliquots of the 0.25% & 0.5% (RT & 45° C.) test solution are added to tubes followed by the rapid addition of 4 mL DPPH working solution then rapidly capped and mixed. After 20 minutes, the absorbance of each sample is read at 517 nm.
The percent reducing activity (%RA) is calculated using the following equation: [formula]
Where A(0) is the absorbance value of the DPPH working solution at 517 nm zeroed against an ethanol blank and A(20) is the absorbance at 517 nm, 20 minutes after combining the antioxidant with the DPPH working solution.
The concentration of antioxidant (mg/ml) in the final assay mixture is calculated based on the dilution of respective aliquots of each compound in the final assay volume and %RA tabulated and plotted as percent activity at each concentration in the dilution series.

[5] = Comparative photostability of thin films under UV A and UV B irradiation; format: physicochemical; settings: thin film, UV A (2 MED/h) and UV B (1 MED/h), 8 h, FIGS. 1 and 2
Protocol: The photostability of compounds of the present invention as well as existing commercial cationic sunscreens is tested according to the procedure described below:
Photostability: Comparative Photostability of Example 3, Incroquat® 283 and Escalol® HP610
Three products [Example 3 (1%), Incroquat 283 (1%) and HP610 (0.1%)] were tested for their photostability by dissolving separately in water or ethanol-water solution containing 0.1% Poly(vinylpyrrolidone-vinyl acetate) copolymer (PVP-VA S630 from ISP). Air drying on a glass plate for one hour gave a thin film, which were irradiated under UV A (2 MED/h) and UV B (1 MED/h) light separately over an 8 h period in a Q-UV Accelerated Weathering Tester. Photodegradation was calculated from the decrease in the maximum absorption of the respective products. The results are illustrated in FIGS. 1 and 2.

[6] = UV absorption (λmax, εmax); format: physicochemical; settings: for λmax: Example 3 in EtOH:water-70%:30%; for εmax: at λmax
Protocol: The mass was degassed for one hour at 90-95 deg. C. under vacuum. The yield obtained is about 85%. […] A 50% solution in water was prepared for ease of handling.
This material was prepared by following the procedure described in Example 3, except syringaldehyde was replaced with vanillin as a starting material. The product has a λmax at 334 nm (ε max 18050 cm^−1 mol^−1). A 50% solution in water was prepared for ease of handling.

Molecule	maximal concentration in aqueous-ethanolic solution ([1]; aqueous-ethanolic solution (30:70%))	Solubility in water [1]	IC 50% [4]	Photostability relative to commercial cationic sunscreens [5]	λmax [6]	εmax [6]	Copper chelation / water coordination of the complex [2]	Iron chelation / water coordination of the complex [3]	Reductive activity at 30 μg/ml [4]
CCCCCCCCCCCC[N+](C)(C)CCCNC(=O)c1ccc(N(C)C)cc1.Cc1ccc(S(=O)(=O)[O-])cc1 [Escalol® HP 610]	0.25%	very poor solubility	–	–	–	–	do not have iron-or copper-chelating properties	do not have iron-or copper-chelating properties	–
COc1cc(/C=C(/C(C)=O)C(=O)NCCCN(C)C)cc(OC)c1O [Example 1, N-(3-Dimethylaminopropyl)-alpha-acyl-3,5-dimethoxy-4-hydroxy Cinnamide]	–	–	79 µg/mL (≈ 225 µM)	–	–	–	–	–	23%
CCCCCCCCCCCC[N+](C)(C)CCCNC(=O)C(C#N)=Cc1cc(OC)c(O)c(OC)c1.CS(=O)(=O)[O-] [Example 2, N-(3-Dimethyl-3-dodecylaminopropyl)-alpha-cyano-3,5-dimethoxy-4-hydroxy Cinnamide Methane Sulphonate]	–	–	129 µg/mL	–	–	–	–	–	28%

The next lines start with results.

maximal concentration in aqueous-ethanolic solution ([1]; aqueous-ethanolic solution (30:70%))	Solubility in water [1]	IC 50% [4]	Photostability relative to commercial cationic sunscreens [5]	λmax [6]	εmax [6]	Molecule	Copper chelation / water coordination of the complex [2]	Iron chelation / water coordination of the complex [3]	Reductive activity at 30 μg/ml [4]
–	highly soluble in water	118 µg/mL	much higher photostability	323 nm	10,500 cm^−1 mol^−1	Bis-N-[3(N,N-dimethylamino)propyl]-3,5-dimethoxy-4-hydroxybenzylidene Malonamide Bis Ethylsulfate [Example 3]	absence of any water coordination	absence of any water coordination	22%
–	–	188 µg/mL	–	334 nm	18050 cm⁻¹ mol⁻¹	Bis-N-[3(N,N-dimethylamino)propyl]-3-methoxy-4-hydroxybenzylidene Malonamide Bis Ethylsulfate [Example 4]	–	–	8%
